From patent US20070116781A1, “Hydrogen Cyanamide Pesticide Formulations” (priority 2005, published 2007)

How the values were obtained:
combined weed species = assay: Herbicidal activity, cyanamide and citric acid, pre-emergence, covered pots; type: in vivo; conditions: C6H8O7 150 mg/kg soil
Description: (§1) The weeds used in these tests were grown from a standard weed seed pack of common annual and perennial weeds representing an extreme weed situation. The weeds included crabgrass (Digitaria sanguinalis), yellow nutsedge (Cyperus esculentus), […] (Ipomoea spp.), pigweed (Amaranthus spp.), and other annual weeds. Observations of the effects on the weed population as a whole were made, and individual observations were made for crabgrass, yellow nutsedge, sicklepod, morningglory, and pigweed. Stock solutions of hydrogen cyanamide at 1.25% by weight and citric acid at 5.0% by weight, both in water, were prepared, the hydrogen cyanamide from a phosphate-buffered 50% aqueous solution. […] Data analyses were performed in the same manner as Example 1. The results expressed in weeds per pot are listed in Table XIV for all weeds, Table XV for crabgrass, Table XVI for yellow nutsedge, Table XVII for sicklepod, Table XVIII for morningglory, and Table XIX for pigweed, all at various application rates for hydrogen cyanamide, with and without citric acid.

weed combination = assay: Herbicidal activity of citric acid alone, pre-emergence, covered pots; type: in vivo
Description: The weeds used in these tests were the same as those used in Example 4, and observations were made of the effects on individual weeds as well as the weed population as a whole.
A stock solution of citric acid was made in the manner described in Example 4, and all other test parameters were likewise the same as in Example 4. Weed counts were taken from the various pots at intervals of 7, 12, and 28 days after application of the citric acid, and data analyses were performed in the same manner as Example 1.

sicklepod = assay: Herbicidal activity, cyanamide and citric acid, pre-emergence, covered pots; type: in vivo, Senna obtusifolia; conditions: C6H8O7 150 mg/kg soil
Description: as §1

crabgrass = assay: as above; type: in vivo, Digitaria sanguinalis; conditions: C6H8O7 150 mg/kg soil
Description: as §1

yellow nutsedge = assay: as above; type: in vivo, Cyperus esculentus; conditions: C6H8O7 150 mg/kg soil
Description: as §1

morningglory = assay: as above; type: in vivo, Ipomoea spp.; conditions: C6H8O7 150 mg/kg soil
Description: as §1

O=C(O)CC(O)(CC(=O)O)C(=O)O [C6H8O7, 2-hydroxy-1,2,3-propanetricarboxylic acid]
Weeds Per Pot (combined weed species) (combined weed species; 9 d after treatment): 10.6 | Weeds Per Pot (combined weed species) (combined weed species; 13 d after treatment): 15.0 | Weeds Per Pot (combined weed species) (combined weed species; 19 d after treatment): 16.5 | Weeds Per Pot (combined weed species) (combined weed species; 26 d after treatment): 16.0 | Weeds Per Pot (weed combination) (weed combination; 7 d after treatment, citric acid 50 mg/kg soil): 16.6 | Weeds Per Pot (weed combination) (weed combination; 7 d after treatment, citric acid 100 mg/kg soil): 11.1 | Weeds Per Pot (weed combination) (weed combination; 7 d after treatment, citric acid 150 mg/kg soil): 14.0 | Weeds Per Pot (weed combination) (weed combination; 7 d after treatment, citric acid 200 mg/kg soil): 12.2 | Weeds Per Pot (weed combination) (weed combination; 7 d after treatment, citric acid 250 mg/kg soil): 11.5 | Weeds Per Pot (weed combination) (weed combination; 12 d after treatment, citric acid 50 mg/kg soil): 29.8 | Weeds Per Pot (weed combination) (weed combination; 12 d after treatment, citric acid 100 mg/kg soil): 25.5 | Weeds Per Pot (weed combination) (weed combination; 12 d after treatment, citric acid 200 mg/kg soil): 20.6 | Weeds Per Pot (weed combination) (weed combination; 28 d after treatment, citric acid 50 mg/kg soil): 28.0 | Herbicidal activity of citric acid (weed combination; pre-emergence, covered pots): negligible except at extremely high application rates | Weeds Per Pot: Sicklepod (sicklepod; 13 d after treatment): 4.6 | Weeds Per Pot: Sicklepod (sicklepod; 19 d after treatment): 5.6 | Weeds Per Pot: Sicklepod (sicklepod; 26 d after treatment): 5.3 | Weeds Per Pot: Crabgrass (crabgrass; 9 d after treatment): 4.6 | Weeds Per Pot: Crabgrass (crabgrass; 13 d after treatment): 8.6 | Weeds Per Pot: Crabgrass (crabgrass; 19 d after treatment): 9.3 | Weeds Per Pot: Crabgrass (crabgrass; 26 d after treatment): 8.1 | Weeds Per Pot: Yellow Nutsedge (yellow nutsedge; 13 d after treatment): 0.7 | Weeds Per Pot: Yellow Nutsedge (yellow nutsedge; 19 d after treatment): 0.9 | Weeds Per Pot: Yellow Nutsedge (yellow nutsedge; 26 d after treatment): 0.9 | Weeds Per Pot: Morningglory (morningglory; 13 d after treatment): 1.1 | Weeds Per Pot: Morningglory (morningglory; 19 d after treatment): 0.9 | Weeds Per Pot: Morningglory (morningglory; 26 d after treatment): 5.3
